From patent US20250295646A1, “METHODS OF USE OF T-TYPE CALCIUM CHANNEL MODULATORS” (Praxis Precision Medicines, Inc., priority 2022, published 2025)

What was measured:
[1] = tested on: adult patients with essential tremor; assay: Essential tremor trial Example 16 Part B open-label titration phase: TETRAS, mADL, ADL efficacy; assay type: in vivo, human; set-up: reduction in upper limb tremor amplitude / LS mean reduction in upper limb tremor amplitude / reduction in combined upper limb tremor amplitude: concentration or dose not given beside the values; conditions: for TETRAS PS Item 6: Archimedes Spiral (Right) Score CFB LS Mean / TETRAS PS Item 7: Handwriting Score CFB LS Mean / TETRAS PSTS Score CFB LS Mean / TETRAS ULS Score CFB LS Mean / TETRAS mADL (TETRAS modified total score) Score CFB LS Mean / TETRAS ADL CTA LS Mean % / TETRAS CULS CTA LS Mean % / TETRAS PS Item 6: Archimedes Spiral (Left) CTA LS Mean % / TETRAS PS Item 6: Archimedes Spiral (Right) CTA LS Mean % / TETRAS PS Item 7: Handwriting CTA LS Mean % / TETRAS PSTS CTA LS Mean % / TETRAS ULS CTA LS Mean % / TETRAS mADL CTA LS Mean % / TETRAS ADL Score CFB LS Mean / TETRAS CULS Score CFB LS Mean / TETRAS PS Item 6: Archimedes Spiral (Left) Score CFB LS Mean: Part B - OLT, FAS; for TETRAS PS Item 6: Archimedes Spiral (Right) Score CFB LS Mean / TETRAS PS Item 7: Handwriting Score CFB LS Mean / TETRAS PSTS Score CFB LS Mean / TETRAS ULS Score CFB LS Mean / TETRAS mADL (TETRAS modified total score) Score CFB LS Mean / TETRAS ADL Score CFB LS Mean / TETRAS CULS Score CFB LS Mean / TETRAS PS Item 6: Archimedes Spiral (Left) Score CFB LS Mean: change from pre-dose baseline; for TETRAS ADL CTA LS Mean % / TETRAS CULS CTA LS Mean % / TETRAS PS Item 6: Archimedes Spiral (Left) CTA LS Mean % / TETRAS PS Item 6: Archimedes Spiral (Right) CTA LS Mean % / TETRAS PS Item 7: Handwriting CTA LS Mean % / TETRAS PSTS CTA LS Mean % / TETRAS ULS CTA LS Mean % / TETRAS mADL CTA LS Mean %: from pre-dose baseline; for TETRAS ADL score, LS mean change from pre-dose baseline / TETRAS combined upper limb score, LS mean change from pre-dose baseline / TETRAS upper limb score, LS mean change from pre-dose baseline / mADL score, LS mean change from pre-dose baseline / reduction in combined upper limb tremor amplitude / reduction in upper limb tremor amplitude / ADL, LS mean change from pre-dose baseline / LS mean reduction in upper limb tremor amplitude / mADL, LS mean change from pre-dose baseline: Part B OLT
Description: A two part trial (Part A and Part B as described below) was conducted to study the efficacy, safety, tolerability, and pharmacokinetics of the compound of formula (I) in adult patients with essential tremor (ET).
Participants were males and females ages 18 and older with a clinical diagnosis of ET. Participants who have a history of any other medical, neurological, or psychiatric condition that may explain or cause tremor were excluded. Participants who have previously received treatment with formula (I) in any clinical trial (including Part A of the current trial for participants enrolling in Part B) were also excluded.
In Part B, an open label titration phase and a randomized, double-blind, placebo-controlled trial was conducted. […] During the withdrawal phase, patients either continued receiving formula (I) at their current dose or switched to placebo, depending on the randomization, for 14 days (Day 43 to Day 56).

[2] = Within-participant escalating dose trial Part B (20-120 mg titration): pharmacokinetics; conditions: titrated dosing schedule
Description: Each participant completed 3 study periods: Screening, Treatment period (12 or 31 days), and Safety follow-up.
Participants were healthy males and females between the ages of 18 and 55 years old.
In Part B, a randomized controlled trial was conducted.

[3] = Day 7, subset with baseline upper limb scores ≥10
[4] = Day 21, subset with baseline upper limb scores ≥10

In the case of CC(C)(C)NC(=O)CN1CCC(CNC(=O)c2cc(F)cc(Cl)c2)CC1 [compound of formula (I), N-((1-(2-(tert-butylamino)-2-oxoethyl)piperidin-4-yl)methyl)-3-chloro-5-fluorobenzamide], the “TETRAS PS Item 6: Archimedes Spiral (Right) Score CFB LS Mean” value ([1]; Day 7) is reported as 0.006, the “TETRAS PS Item 7: Handwriting Score CFB LS Mean” value ([1]; Day 7) is reported as −0.019 and the “TETRAS PSTS Score CFB LS Mean” value ([1]; Day 7) is reported as −1.253. For the same molecule, the “TETRAS ULS Score CFB LS Mean” value ([1]; Day 7) was −0.967, the “TETRAS mADL (TETRAS modified total score) Score CFB LS Mean” value ([1]; Day 7) was −2.862 and the “TETRAS ADL CTA LS Mean %” value ([1]; Day 7) was −7.29%. For the same molecule, the “TETRAS CULS CTA LS Mean %” value ([1]; Day 7) was −9.1%, the “TETRAS PS Item 6: Archimedes Spiral (Left) CTA LS Mean %” value ([1]; Day 7) was 22.4% and the “TETRAS PS Item 6: Archimedes Spiral (Right) CTA LS Mean %” value ([1]; Day 7) was 0.6%. The “TETRAS PS Item 7: Handwriting CTA LS Mean %” value ([1]; Day 7) was −2.2%, the “TETRAS PSTS CTA LS Mean %” value ([1]; Day 7) was −8.6% and the “TETRAS ULS CTA LS Mean %” value ([1]; Day 7) was −16.9%. The “TETRAS mADL CTA LS Mean %” value ([1]; Day 7) was −18.49%, the “TETRAS ADL Score CFB LS Mean” value ([1]; Day 21) was −3.475 and the “TETRAS CULS Score CFB LS Mean” value ([1]; Day 21) was −1.320. For the same molecule, the “TETRAS PS Item 6: Archimedes Spiral (Left) Score CFB LS Mean” value ([1]; Day 21) was −0.012, the “TETRAS PS Item 6: Archimedes Spiral (Right) Score CFB LS Mean” value ([1]; Day 21) was −0.240 and the “TETRAS PS Item 7: Handwriting Score CFB LS Mean” value ([1]; Day 21) was 0.107. For the same molecule, the “TETRAS PSTS Score CFB LS Mean” value ([1]; Day 21) was −1.449, the “TETRAS ULS Score CFB LS Mean” value ([1]; Day 21) was −1.143 and the “TETRAS mADL (TETRAS modified total score) Score CFB LS Mean” value ([1]; Day 21) was −2.812. The “TETRAS ADL CTA LS Mean %” value ([1]; Day 21) was −12.02%, the “TETRAS CULS CTA LS Mean %” value ([1]; Day 21) was −12.9% and the “TETRAS PS Item 6: Archimedes Spiral (Left) CTA LS Mean %” value ([1]; Day 21) was −1.3%. For the same molecule, the “TETRAS PS Item 6: Archimedes Spiral (Right) CTA LS Mean %” value ([1]; Day 21) was −24.2%, the “TETRAS PS Item 7: Handwriting CTA LS Mean %” value ([1]; Day 21) was 11.5% and the “TETRAS PSTS CTA LS Mean %” value ([1]; Day 21) was −9.9%. The “TETRAS ULS CTA LS Mean %” value ([1]; Day 21) was −19.7%, the “TETRAS mADL CTA LS Mean %” value ([1]; Day 21) was −14.31% and the “TETRAS ADL Score CFB LS Mean” value ([1]; Day 42, 6 hours post-dose) was −8.207. For the same molecule, the “TETRAS CULS Score CFB LS Mean” value ([1]; Day 42, 6 hours post-dose) was −1.882, the “TETRAS PS Item 6: Archimedes Spiral (Left) Score CFB LS Mean” value ([1]; Day 42, 6 hours post-dose) was −0.072 and the “TETRAS PS Item 6: Archimedes Spiral (Right) Score CFB LS Mean” value ([1]; Day 42, 6 hours post-dose) was −0.239. For the same molecule, the “TETRAS PS Item 7: Handwriting Score CFB LS Mean” value ([1]; Day 42, 6 hours post-dose) was −0.054, the “TETRAS PSTS Score CFB LS Mean” value ([1]; Day 42, 6 hours post-dose) was −2.771 and the “TETRAS ULS Score CFB LS Mean” value ([1]; Day 42, 6 hours post-dose) was −2.090. The “TETRAS mADL (TETRAS modified total score) Score CFB LS Mean” value ([1]; Day 42, 6 hours post-dose) was −6.669, the “TETRAS ADL CTA LS Mean %” value ([1]; Day 42, 6 hours post-dose) was −29.59% and the “TETRAS CULS CTA LS Mean %” value ([1]; Day 42, 6 hours post-dose) was −17.9%. For the same molecule, the “TETRAS PS Item 6: Archimedes Spiral (Left) CTA LS Mean %” value ([1]; Day 42, 6 hours post-dose) was −8.0%, the “TETRAS PS Item 6: Archimedes Spiral (Right) CTA LS Mean %” value ([1]; Day 42, 6 hours post-dose) was −24.1% and the “TETRAS PS Item 7: Handwriting CTA LS Mean %” value ([1]; Day 42, 6 hours post-dose) was −6.0%. The “TETRAS PSTS CTA LS Mean %” value ([1]; Day 42, 6 hours post-dose) was −18.1%, the “TETRAS ULS CTA LS Mean %” value ([1]; Day 42, 6 hours post-dose) was −33.0% and the “TETRAS mADL CTA LS Mean %” value ([1]; Day 42, 6 hours post-dose) was −42.04%. The “TETRAS ADL score, LS mean change from pre-dose baseline” value (from here on “TETRAS ADL score, LS mean change”) ([1]; Day 7) was −1.986, the “TETRAS combined upper limb score, LS mean change from pre-dose baseline” value ([1]; Day 7) was −0.909 and the “TETRAS upper limb score, LS mean change from pre-dose baseline” value (shortened to “TETRAS upper limb score, LS mean change”) ([1]; Day 7) was −0.967. For the same molecule, the “mADL score, LS mean change from pre-dose baseline” value (shortened to “mADL score, LS mean change”) ([1]; Day 7) was −2.862, the “reduction in combined upper limb tremor amplitude” value ([1]; Day 7) was 9.1% and the “reduction in upper limb tremor amplitude” value ([1]; Day 7) was 16.9%. For the same molecule, the “ADL, LS mean change from pre-dose baseline” value [1, 3] was −2.222, the “LS mean reduction in upper limb tremor amplitude” value [1, 3] was 22.9% and the “mADL, LS mean change from pre-dose baseline” value [1, 3] was −3.011. For the same molecule, the “TETRAS ADL score, LS mean change” value ([1]; Day 21) was −3.475, the “TETRAS combined upper limb score, LS mean change from pre-dose baseline” value ([1]; Day 21) was −1.320 and the “TETRAS upper limb score, LS mean change” value ([1]; Day 21) was −1.143. The “mADL score, LS mean change” value ([1]; Day 21) was −2.812, the “reduction in combined upper limb tremor amplitude” value ([1]; Day 21) was 12.9% and the “reduction in upper limb tremor amplitude” value ([1]; Day 21) was 19.7%. For the same molecule, the “ADL, LS mean change from pre-dose baseline” value [1, 4] was −4.444, the “LS mean reduction in upper limb tremor amplitude” value [1, 4] was 26.7% and the “mADL, LS mean change from pre-dose baseline” value [1, 4] was −3.773. The “TETRAS ADL score, LS mean change” value ([1]; Day 42) was −8.207, the “TETRAS combined upper limb score, LS mean change from pre-dose baseline” value ([1]; Day 42) was −1.882 and the “TETRAS upper limb score, LS mean change” value ([1]; Day 42) was −2.090. The “mADL score, LS mean change” value ([1]; Day 42) was −6.669, the “reduction in combined upper limb tremor amplitude” value ([1]; Day 42) was 17.9% and the “reduction in upper limb tremor amplitude” value ([1]; Day 42) was 33.0%. The “increase of Cmax and AUC24 above values of a lower dosage not tolerated without titration” value [2] was 2-3 fold.
